Here are results for five compounds from patent US11925644B2, “Crystalline salts of 5-methyl-(6S)-tetrahydrofolic acid and l-leucine ethyl ester” (MERCK PATENT GMBH, priority 2018, dated 2024).

A short description of series [1]: Hygroscopicity by dynamic water vapor sorption analysis (DVS). It counts as physicochemical. The following applies: 0 to 75% r.h. As to the method:
DVS measurements are typically performed with an SPS11-100n “Sorptions Prüfsystem” from ProUmid (formerly “Projekt Messtechnik”), August-Nagel-Str. 23, 89079 Ulm (Germany).
(§1) DVS measurements were performed as follows: The sample was placed on an aluminum holder on top of a microbalance and allowed to equilibrate at 50% RH before starting the pre-defined humidity program: • (1) two hours kept at 50% constant relative humidity (RH) then • (2) reduced to 0% RH at a rate of 5% per hour • (3) maintained RH at 0% for five hours • (4) raised RH to 75% at a rate of 5% per hour • (5) maintained RH at 75% for five hours • (6) reduced to 0% RH at a rate of 5% per hour • (7) maintained RH at 0% for five hours • (8) raised RH to 75% at a rate of 5% per hour • (9) reduced to 50% RH at a rate of 5% per hour • (10) maintained RH at 50% for about one hour
The results are illustrated in FIG. 2.

The conditions of series [2]: purified/de-ionized water, room temperature, agitated one minute, gravimetric. The protocol: (§2) 2.00 mL of purified/de-ionized water (for instance water for chromatography) was added to the solid using an adjustable volumetric pipette. The mixture was vigorously agitated at room temperature for one minute. […] The solution was filtered by centrifugal filtration and 1.50 mL of the aqueous solution was transferred into a tared glass vial (about 10 mL volume). The water was evaporated in an air dryer at 40° C. for about 15 hours, then at 50° C. for about eight hours, subsequently drying was completed at 50° C. under vacuum (10 to 20 mbar) for about 13 hours. The solubility was determined by gravimetric evaluation of the solid residue.
as §2, with “The suspension” for “The solution”

Series [3] is described as follows: Water content (TG-FTIR). In kind it is physicochemical. The protocol:
Thermogravimetric measurements were carried out with a Netzsch Thermo-Microbalance TG 209 coupled to a Bruker FTIR Spectrometer Vector 22 (sample pans with a pinhole, N2 atmosphere, heating rate 10 K/min).
About 420 mg of the solid material obtained in Example 2 was weighed into a filter centrifuge device and 2.0 mL of water is added followed by centrifugation under ambient conditions. This wash step is repeated twice more using 0.5 mL of water. The wet filter cake is then transferred to a fritted glass filter and air dried by drawing ambient air (about 22° C./about 21% r.h.) through the glass filter for about 10 minutes.
as §1

The conditions of series [4]: cited from earlier work; for aqueous solubility: room temperature.

Regarding “5-methyl-(6S)-tetrahydrofolic acid calcium salt”, the “change of water content within tested relative humidity range” value in series [1] was “about 7.4%”. Also, the kinetic solubility in series [2] is given as 9.0 mg of 5-methyl-(6S)-tetrahydrofolic acid per mL. This compound also returned a water content in series [3] (method not stated) of 12.4%.

`CCOC(=O)[C@@H](N)CC(C)C.CN1c2c([nH]c(N)nc2=O)NC[C@@H]1CNc1ccc(C(=O)N[C@@H](CCC(=O)O)C(=O)O)cc1` [5-methyl-(6S)-tetrahydrofolic acid L-leucine ethyl ester 1:1 salt]: the water content entry in series [3] (TG-FTIR analysis) is given as “about 0.7%”.

On to `CN1c2c(nc(N)[nH]c2=O)NC[C@@H]1CNc1ccc(C(=O)N[C@@H](CCC(=O)O)C(=O)O)cc1` [5-methyl-(6S)-tetrahydrofolic acid], for which the “solubility in water” value in series [4] (water) is “poorly soluble in water”.

Take `CN1c2c([nH]c(N)nc2=O)NC[C@@H]1CNc1ccc(C(=O)N[C@@H](CCC(=O)[O-])C(=O)[O-])cc1.[Ca+2]` [Form I, calcium salt of 5-methyl-(6S)-tetrahydrofolic acid]: the aqueous solubility result in series [4] was “about 10 mg/ml”.

`CN1c2c([nH]c(N)nc2=O)NC[C@@H]1CNc1ccc(C(=O)N[C@@H](CCC(=O)[O-])C(=O)[O-])cc1.[Ca+2]` [calcium salt (Form III), calcium salt of 5-methyl-(6S)-tetrahydrofolic acid]: the aqueous solubility result in series [4] is given as “about 2.5 mg/ml”.
